Measured values from the Deep4Chem optical property database.
Where “and” joins values, the source holds several entries; their conditions need not be identical. Identical values can stand only once.

Experiment: solvent given as SMILES

## CN(C)c1ccc2cc(C3=[O+][B-](F)(F)OC(c4ccccc4)=C3)ccc2c1
In C1CCOC1
  absorption maximum: 492 nm
In CC#N
  absorption maximum: 503 nm
In CC(C)=O
  absorption maximum: 498 nm
In CS(C)=O
  absorption maximum: 520 nm
In Cc1ccccc1
  absorption maximum: 489 nm
In ClC(Cl)Cl
  absorption maximum: 500 nm
In ClCCl
  absorption maximum: 504 nm

## F[B-]1(F)n2c(cc(-c3ccccc3)c2-c2ccccc2)C(c2ccccc2)=C2C=C(c3ccccc3)C(c3ccccc3)=[N+]21
In C1CCOC1
  absorption maximum: 586 nm
In CC#N
  absorption maximum: 576 nm
In Cc1ccccc1
  absorption maximum: 592 nm
In ClCCl
  absorption maximum: 584 nm

## Cc1ccc2c(c1)C1(c3ccccc3Oc3ccccc31)c1cc(C)ccc1N2c1ccc(-c2nc(-c3ccccc3)cc(-c3ccccc3)n2)cc1
In Cc1ccccc1
  absorption maximum: 378 nm

## CCOC(=O)c1c(C=Cc2ccccc2)oc(NC2CCCCC2)c1C(=O)OCC
In CC#N
  absorption maximum: 384 nm

## COc1ccc2cc(-c3ccc(S(C)(=O)=O)cc3)oc(=O)c2c1
In CCO
  absorption maximum: 331 nm
In CCOC(C)=O
  absorption maximum: 331 nm
In CN(C)C=O
  absorption maximum: 333 nm
In CO
  absorption maximum: 330 nm
In ClC(Cl)Cl
  absorption maximum: 334 nm

## CN(C)c1ccc(/C=C/c2cc(/C=C/c3ccc(N(C)C)cc3)nc(/C=C/c3ccccc3)n2)cc1
In ClCCl
  absorption maximum: 423 nm

## O=C(/C=C/c1cn(-c2ccccc2)nc1-c1ccccc1)c1c(O)c2ccccc2oc1=O
In C1CCOC1
  absorption maximum: 406 nm
In C1COCCO1
  absorption maximum: 405 nm
In CCO
  absorption maximum: 400 nm
In CCOC(C)=O
  absorption maximum: 402 nm
In CN(C)C=O
  absorption maximum: 381 nm
In CO
  absorption maximum: 352 nm
In CS(C)=O
  absorption maximum: 401 nm
In Cc1ccccc1
  absorption maximum: 409 nm
In ClC(Cl)Cl
  absorption maximum: 405 nm
In ClCCl
  absorption maximum: 404 nm

## CC1(C)C(/C=C/C=C/c2cc3ccc(O)cc3oc2=O)=[N+](CCCS(=O)(=O)[O-])c2ccccc21
In CS(C)=O
  absorption maximum: 491 nm
In O
  absorption maximum: 564 nm

## CI
In CCCCCC
  absorption maximum: 259 nm

## Oc1ccc2ccccc2c1/C=N/c1ccccc1/N=C/c1c(O)ccc2ccccc12
In CC#N
  absorption maximum: 429 nm

## O=S1(=O)c2ccc(-c3ccc(-n4c5ccccc5c5ccccc54)cc3)cc2C2(c3ccccc3-c3ccccc32)c2cc(-c3ccc(-n4c5ccccc5c5ccccc54)cc3)ccc21
In ClCCl
  absorption maximum: 341 nm

## O=C(O)c1ccc(C2=C(/C=C/c3[se]c4ccccc4[n+]3CCCCS(=O)(=O)[O-])CCC/C2=C\C=C2/[Se]c3ccccc3N2CCCCS(=O)(=O)[O-])cc1
In CO
  absorption maximum: 800 nm

## C(#Cc1cc2ccc3cc(C#Cc4ccccc4)cc4ccc(c1)c2c34)c1ccccc1
In Cc1ccccc1
  absorption maximum: 410 nm

## COc1ccccc1-c1nc2c3cccnc3c3ncccc3c2n1-c1ccccc1
In Cc1ccccc1
  absorption maximum: 363 nm

## CCCCCCCCc1ccc(-n2c3c(c4c2c2c(n4-c4ccc(CCCCCCCC)cc4)-c4ccccc4NB2c2ccccc2)B(c2ccccc2)Nc2ccccc2-3)cc1
In Cc1ccccc1
  absorption maximum: 387 nm

## CCOc1ccc2c(-c3nc(-c4ccccc4Cl)no3)cc(=O)oc2c1
In CCO
  absorption maximum: 393 nm
In ClC(Cl)Cl
  absorption maximum: 394 nm

## CCN(CC)c1ccc2cc(-c3nc4ccccc4s3)c(=O)oc2c1
In C1CCCCC1
  absorption maximum: 425.4 nm
In CC1CCCCC1
  absorption maximum: 425.4 nm
In CC#N
  absorption maximum: 454 nm and 447 nm
In CCC(C)CC
  absorption maximum: 425 nm
In CCCCCC
  absorption maximum: 425 nm
In CCO
  absorption maximum: 460 nm
In CCOC(C)=O
  absorption maximum: 439.4 nm

## CCOC(=O)c1c(-c2cc3ccc(OCC=C(C)C)cc3oc2=O)nn(-c2cccc(Cl)c2)c1C(=O)OCC
In ClCCl
  absorption maximum: 339 nm

## CC(C)(C)c1ccc2c(c1)Cc1cc(C(C)(C)C)ccc1-2
In C1CCCCC1
  absorption maximum: 308 nm

## CCCCCCCCCCCCN1C(=O)c2c(c3ccc4cc(-c5ccc(Cl)cc5)c(OC)cc4c3c3c2ccc2cc(-c4ccc(Cl)cc4)c(OC)cc23)C1=O
In ClCCl
  absorption maximum: 430 nm

## CN(C)c1ccc(C(=Cc2ccc(/C=C/c3ccc(C#N)cc3)cc2)c2ccc(N(C)C)cc2)cc1
In C1CCOC1
  absorption maximum: 415 nm

## CCOC(=O)c1c(-c2c(Cl)c3ccccc3oc2=O)nn(-c2cccc(Cl)c2)c1C(=O)OCC
In ClCCl
  absorption maximum: 321 nm

## O=C([O-])c1ccc(C(=O)[O-])c(C2=c3cc4c5c(c3Oc3c2cc2c6c3CCCN6CCC2)CCC[N+]=5CCC4)c1
In CCO
  absorption maximum: 571 nm
In O
  absorption maximum: 574 nm

## COc1cc(OC)cc(C2=C3C(C)=C(I)C(C)=[N+]3[B-](F)(F)n3c(/C=C/c4ccsc4)c(I)c(C)c32)c1
In C1CCOC1
  absorption maximum: 598 nm
In CS(C)=O
  absorption maximum: 604 nm
In ClCCl
  absorption maximum: 599 nm

## CCCCCc1c(Oc2cc(O)cc(CCC(=O)CC)c2C(=O)OC)c(OC)cc(O)c1C(=O)O
In ClC(Cl)Cl
  absorption maximum: 312 nm

## C1=C2c3cc4ccccc4cc3C3=[N+]2[B-]2(Oc4ccccc43)Oc3ccccc3-c3c4cc5ccccc5cc4c1n32 (stereo unspecified)
In C1CCOC1
  absorption maximum: 830 nm

## CC1(C)c2ccccc2N(c2ccccc2)c2ccc(-c3nc(-c4ccccc4)nc(-c4ccccc4)n3)cc21
In Cc1ccccc1
  absorption maximum: 389.97 nm

## C[N+]1=C(/C=C/C=C2/N(CCCS(=O)(=O)[O-])c3ccccc3C2(C)C)C(C)(C)c2ccccc21
In CS(C)=O
  absorption maximum: 553 nm

## CCCCN1C(=O)C2=C(c3ccc(-c4ccccc4)cc3)NC(=O)C2=C1c1ccc(-c2ccccc2)cc1
In ClCCl
  absorption maximum: 485 nm

## Cc1cc(C)c(B(c2ccc(-c3cc4ccc5cccc6ccc(c3)c4c56)cc2)c2c(C)cc(C)cc2C)c(C)c1
In Cc1ccccc1
  absorption maximum: 378 nm

## CCCSc1ccc2n1[B-](F)(F)[N+]1=C(SC#N)C=CC1=C2c1ccccc1
In CC#N
  absorption maximum: 538 nm
In CCCCCC
  absorption maximum: 555 nm
In CCOC(C)=O
  absorption maximum: 549 nm
In CO
  absorption maximum: 544 nm
In ClCCl
  absorption maximum: 552 nm

## CCOC(=O)/C(=C1\C(=O)C(O)=C1C=C1N(C)c2ccccc2C1(C)C)[N+](=O)[O-]
In CCO
  absorption maximum: 475 nm

## C[n+]1c2c(c(-c3ccccc3)c3c1CCCC3)CCCC2
In CCO
  absorption maximum: 340.03 nm

## COc1ccc(-c2nc(-c3ccccc3OC)[nH]c2-c2ccc(OC)cc2)cc1
In CO
  absorption maximum: 299 nm

## C#Cc1ccc2cc(/C=C/C(=O)OCC)c(=O)oc2c1
In CCO
  absorption maximum: 360 nm

## O=C(O)CCCc1cc2ccc3cccc4ccc(c1)c2c34
In CO
  absorption maximum: 374 nm

## Cc1cc(C)c(B(c2cc(-c3ccc(C(F)(F)F)cc3)sc2-c2sc(-c3ccc(C(F)(F)F)cc3)cc2P(=O)(c2ccccc2)c2ccccc2)c2c(C)cc(C)cc2C)c(C)c1
In CO
  absorption maximum: 389 nm

## CCCCN(CCCC)c1ccc(C#Cc2cc(C#Cc3ccc(C(F)(F)F)cc3)c(C#Cc3ccc(C(F)(F)F)cc3)cc2C#Cc2ccc(N(CCCC)CCCC)cc2)cc1
In ClCCl
  absorption maximum: 407 nm

## CCCCCCCCn1c2ccccc2c(=O)c2ccccc21
In CS(C)=O
  absorption maximum: 404 nm

## Cc1ccc(-c2nc3sc4ccccc4c3s2)cc1
In CS(C)=O
  absorption maximum: 349 nm

## CSc1nc(-c2ccc(-n3c4ccccc4c4ccccc43)cc2)cc(-c2ccc(-n3c4ccccc4c4ccccc43)cc2)n1
In C1CCOC1
  absorption maximum: 363 nm
In CN(C)C=O
  absorption maximum: 364 nm
In Cc1ccccc1
  absorption maximum: 364 nm
In ClC(Cl)Cl
  absorption maximum: 364 nm

## Cc1cccc(C)c1-c1cc2c(C)c3c4ccc5nc6c(ccc7c8c(C)c9cc(-c%10c(C)cccc%10C)c(-c%10c(C)cccc%10C)cc9c(C)c8c76)nc5c4c3c(C)c2cc1-c1c(C)cccc1C
In ClC(Cl)Cl
  absorption maximum: 501 nm

## O=C1O[B-]2(OC1=O)OC(c1ccccc1)=CC(c1ccccc1)=[O+]2
In CC#N
  absorption maximum: 384 nm
In ClC(Cl)(Cl)Cl
  absorption maximum: 384 nm

## Cc1ccc(-c2nc(-c3ccccc3O)[nH]c2-c2ccc(C)cc2)cc1
In CO
  absorption maximum: 320 nm

## COCCC1=Cc2nc1ccc1[nH]c(c3nc(ccc4[nH]c2cc4CCOC)C(CCOC)=C3)c2c(C(=O)OC)c(C(=O)O)ccc12
In Cc1ccccc1
  absorption maximum: 636 nm
